Columns and labels:
[1] = system: chronic respiratory disease (CRD); assay: Treatment of chronic respiratory disease (CRD) in spontaneously hypertensive (SH) rats; format: in vivo, rat (SH); for Dead animals: tested at 0.001 ppm; for Ill animals: tested at 0.001 ppm; for Total number of rats: tested at 0.001 ppm; for Well animals: tested at 0.001 ppm; for animals showing a trace of secretions around their necks: tested at 0.001 ppm; for rats alive in the treated group: tested at 0.001 ppm
Description: Treatment of Chronic Respiratory Disease (CRD) in laboratory rats: chronic respiratory disease symptoms include coughing and wheezing accompanied by nasal secretions.
One-half of a colony of spontaneously hypertensive (SH) rats was treated with 2,4-dimethylphenol in their drinking water at a concentration of one part per billion. The other half of this colony was given only tap water, and both groups observed for 76 days. The second experiment was with a highly inbred strain (GM) of rats that were about to expire, because of chronic respiratory infection. […] Both groups, the SH rats and the GM rats, were not breeding because of their infections and were in seriously poor health.
They were only 42 SH rats left in the colony. They were divided into two groups of 21 rats each. Approximately one-half the sick rats were selected for each group. […] This was best observed as a brown secretion from the nose and wiped around the neck by the rat's front paws. The experimental group was treated continuously with one part per billion (1 PPB) of 2,4-dimethylphenol in their drinking fluid. Certain of these rats were so ill that they were near death when the experiment was started and they died in spite of treatment.

[2] = system: pneumonia virus of mice (PVM); assay: Serum PVM titers in rats; format: in vivo, pneumonia virus of mice (host: rat); conditions: for Mycoplasma infected rats that failed to show titers for PVM: sera of 19 infected rats
Excerpt: Attempts were made to test the effect of infecting rats with Mycoplasma pulmonis (ATCC 19612) so that they could transmit the disease to their cage mates and, also allowed them to breed. This was also done to test if the mothers would pass the infection on to their litters. These rats were purchased from a laboratory in Indianapolis, Indiana and they were divided into 6 groups with male animals in each group. In the 5 experimental groups, a total of 15 female rats out of 30, and in the control group 4 female rats out of 8 were infected intranasally with Mycoplasma pulmonis (ATCC 19612). There were two male rats per experimental group and 3 for the controls totaling 13 male rats, and none of these were infected with M. pulmonis.
The experimental groups (8 rats each) and control group were treated as follows:
All rats were fed ad libitum rat chow, and their cages were cleaned 5-6 times weekly. For the 5 experimental groups, the 2,4 DMP was dissolved in distilled water used for their drinking fluid while the control only received distilled water. There were times when the rats spilled excessive amounts of their drinking water and this caused a certain amount of the phenol to be evaporated from these cages, particularly those groups receiving the higher concentrations of the phenol. This way, it was possible for the controls to inhale a small but indefinite amount of the phenol which is volatile. All animals were kept in the same laboratory room.
All the male animals (13) were sacrificed after 14 days, and after impregnating the females. Their blood was collected by heart puncture, and the animals lungs were saved in 10% formalin for pathology. All the female rats (18) that were not infected, except one, intranasally with M. pulmonis were sacrificed 30 days post infection of their cage mates. All the young born to these rats (non-infected), during this time were also sacrificed. The blood and lungs from the adult females were saved for study.
The 19 female rats infected with M. pulmonis and one non-infected female were allowed to raise their litters so that the young could be weaned, and then they were sacrificed 58 days post infection, saving their blood and lungs for study.
When the offsprings from the M. pulmonis infected mothers were 40-50 days old a proportionate number selected at random were sacrificed, saving blood and lungs for study:
The serum of each rat sacrificed was tested for antibodies for Mycoplasma. […] One of these rats was in the group receiving one part per million of the phenol and other was a control. Therefore, it was concluded that the Mycoplasma pulmonis was not the cause of the lung infection in these rats, but there was still enough pathology evident in these lungs to suspect some unknown infection. Consequently, the serum of the control rat showing a low titer for Mycoplasma pulmonis was screened by a commercial laboratory for virus infections commonly associated with rats.
All blood serums saved from these experiments were tested for PVM titers. Sera from eight of the 13 males sacrificed at 14 days had detectable titers. All three of these controls had titers indicating PVM infection leaving 5 treated rats with titers for PVM. In the 18 non-infected female rats that were sacrificed after 30 days two rats were negative for PVM titers, one was in the 1 PPM and the other was in the 1 PPB treated groups.

[3] = day 14, 1 PPB in drinking water, SH rats
[4] = day 22, 1 PPB in drinking water, SH rats
[5] = day 29, 1 PPB in drinking water, SH rats
[6] = day 36, 1 PPB in drinking water, SH rats
[7] = day 43, 1 PPB in drinking water, SH rats

What does the source list for Cc1ccc(O)c(C)c1 [2,4-dimethylphenol]?
Dead animals [1, 3]: 1; Ill animals [1, 3]: 8; Well animals [1, 3]: 12; Total number of rats ([1]; day 14, 1 PPB in drinking water, SH rats, 21 at start): 21; Dead animals [1, 4]: 1; Ill animals [1, 4]: 7; Well animals [1, 4]: 12; Total number of rats ([1]; day 22, 1 PPB in drinking water, SH rats, 21 at start): 20; Dead animals [1, 5]: 2; Ill animals [1, 5]: 4; Well animals [1, 5]: 13; Total number of rats ([1]; day 29, 1 PPB in drinking water, SH rats, 21 at start): 19; Ill animals [1, 6]: 5; Well animals [1, 6]: 12; Total number of rats ([1]; day 36, 1 PPB in drinking water, SH rats, 21 at start): 17; Ill animals [1, 7]: 5; Well animals [1, 7]: 12; Total number of rats ([1]; day 43, 1 PPB in drinking water, SH rats, 21 at start): 17; Well animals ([1]; day 76, 1 PPB in drinking water, SH rats): 12; Total number of rats ([1]; day 76, 1 PPB in drinking water, SH rats, 21 at start): 17; Ill animals ([1]; day 76, 1 PPB in drinking water, SH rats, minimal infection): 5; infection in the five ill rats ([1]; day 76, visual observation, 1 PPB, SH rats): minimal infection from visual observation; rats alive in the treated group ([1]; end of 76 days, 1 PPB in drinking water, SH rats, 21 at start): 17; animals showing a trace of secretions around their necks ([1]; end of 76 days, of 17 rats alive, 1 PPB, SH rats): 5; breeding and colony health ([1]; more than 2 years, 1 PPB in drinking fluid, combined SH groups): These animals began to breed, and the colony is now healthy; non-infected female rats negative for PVM titers ([2]; 1 PPM, sacrificed after 30 days, all controls positive): one; offspring with detectable titers for PVM ([2]; 47 offsprings tested, treated groups and controls exposed to vapors): not one; effect on PVM ([2]; 51 rats purchased, drinking water): appeared to have had an effect on this virus so as to depress its passage to other animals; Mycoplasma infected rats that failed to show titers for PVM ([2]; 100 parts per billion): two; treated male rats with titers for PVM ([2]; males sacrificed at 14 days, all treated groups, all three controls positive): 5; Mycoplasma infected rats that failed to show titers for PVM ([2]; one part per million): two

— patent publication US4084006A, “Method of using dialkylphenols an antiviral agents” (priority 1977, dated 1978)
